# Assay results published in BindingDB's records for patent US10646492 (Incyte Corporation; Incyte Holdings Corporation, 2020).
# Target: T1, Phosphatidylinositol 4,5-bisphosphate 3-kinase catalytic subunit delta isoform (Homo sapiens, UniProt O00329)
# T1 sequence (O00329 whole entry): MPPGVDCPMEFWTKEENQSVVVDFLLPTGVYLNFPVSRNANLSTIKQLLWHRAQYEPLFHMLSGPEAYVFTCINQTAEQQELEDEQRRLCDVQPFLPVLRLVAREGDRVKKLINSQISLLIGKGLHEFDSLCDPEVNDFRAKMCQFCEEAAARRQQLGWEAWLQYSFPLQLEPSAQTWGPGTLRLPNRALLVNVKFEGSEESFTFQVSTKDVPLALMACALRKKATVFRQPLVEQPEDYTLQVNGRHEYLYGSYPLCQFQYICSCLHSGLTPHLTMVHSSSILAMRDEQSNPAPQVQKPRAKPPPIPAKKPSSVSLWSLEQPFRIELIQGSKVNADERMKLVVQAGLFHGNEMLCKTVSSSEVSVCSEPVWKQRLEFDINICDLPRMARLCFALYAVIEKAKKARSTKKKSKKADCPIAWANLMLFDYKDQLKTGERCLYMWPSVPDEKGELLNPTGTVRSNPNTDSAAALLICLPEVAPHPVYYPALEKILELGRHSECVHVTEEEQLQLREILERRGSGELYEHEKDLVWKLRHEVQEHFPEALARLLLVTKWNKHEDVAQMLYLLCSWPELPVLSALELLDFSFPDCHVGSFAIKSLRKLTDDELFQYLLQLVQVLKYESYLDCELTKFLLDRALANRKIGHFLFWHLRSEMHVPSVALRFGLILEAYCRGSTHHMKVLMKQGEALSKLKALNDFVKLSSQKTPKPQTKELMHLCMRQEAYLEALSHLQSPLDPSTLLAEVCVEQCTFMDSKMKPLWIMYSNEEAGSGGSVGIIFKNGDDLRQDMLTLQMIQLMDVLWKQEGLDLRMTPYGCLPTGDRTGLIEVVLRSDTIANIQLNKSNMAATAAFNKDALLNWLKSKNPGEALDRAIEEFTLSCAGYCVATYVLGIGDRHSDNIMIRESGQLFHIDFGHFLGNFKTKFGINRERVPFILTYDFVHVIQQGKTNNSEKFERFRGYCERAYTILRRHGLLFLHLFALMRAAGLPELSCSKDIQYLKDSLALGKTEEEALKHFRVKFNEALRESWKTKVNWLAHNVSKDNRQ
# Assay: Scintillation Proximity Assay
# Procedure: The kinase reaction was conducted in polystyrene 384-well matrix white plate from Thermo Fisher Scientific in a final volume of 25 uL. Inhibitors were first diluted serially in DMSO and added to the plate wells before the addition of other reaction components. The final concentration of DMSO in the assay was 0.5%. The PI3K assays were carried out at room temperature in 20 mM MOPS, pH 6.7, 10 mM MgCl2, 5 mM DTT and CHAPS 0.03%. Reactions were initiated by the addition of ATP, the final reaction mixture consisted of 20 uM PIP2, 20 uM ATP, 0.2 uCi [gamma-33P]ATP, 4 nM PI3Kdelta. […] 25 mM EDTA, 400 uM ATP. The final concentration of SPA beads was 1.0 mg/mL. After the plate sealing, plates were shaken overnight at room temperature and centrifuged at 1800 rpm for 10 minutes, the radioactivity of the product was determined by scintillation counting on Topcount (PerkinElmer).
row,IC50,Compound
1,< 10 nM,"COc1c([C@H](C)n2cc(C)c3c(N)ncnc32)cc(Cl)c(C#N)c1C1CN([C@@H](C)CO)C1 [US10646492, Example 362]"
2,< 10 nM,"CCOc1c(C(C)n2cc(C)c3c(N)ncnc32)cc(Cl)c(C#N)c1C1CN([C@@H](C)CO)C1 (stereo partly drawn) [US10646492, Example 309]"

row,Compound,IC50
1,"COc1c(C(C)n2nc(C)c3c(N)ncnc32)cc(Cl)c(C)c1-c1ccnc(C(=O)C(C)C)c1 (stereo not drawn) [US10646492, Example 16]",< 10 nM
